US20250262211A1, “COMBINATION OF RAS INHIBITORS AND […] INHIBITORS FOR THE TREATMENT OF CANCERS” (INSTITUT NATIONAL DE LA SANTÉ ET DE LA RECHERCHE MÉDICALE, priority 2022, published 2025)

Legend:
Assay type in all cases: cell-based
H23 cells (KRas G12C) = test: Cell confluency of H23 cells under treatment, Incucyte Live-Cell Analysis / amidoblack staining; details: drug used alone, 1 μM, 35 days
Method: FIG. 1. […] A. Cell confluency was measured twice a week over 35 days of indicated treatments. B. Amidoblack staining of a 6-well plate after 35 of indicated treatments.
Medium was changed twice a week and cell confluency was monitored by Incucyte® Live-Cell Analysis System.

[1] = system: H23 KRAS (G12C)-mutant non-small cell lung cancer (NSCLC) cell line; test: FUCCI-transduced H23 cells, response/relapse monitored by Incucyte during 50 days; details: H23, 50 days
[2] = system: Calu-1 KRAS (G12C)-mutant non-small cell lung cancer (NSCLC) cell line; test: FUCCI-transduced Calu-1 cells, response/relapse monitored by Incucyte during 50 days; details: Calu-1, 50 days
[3] = 1 μM tipifarnib added to 1 μM sotorasib

| SMILES | anti-tumor effect (cell confluency) (H23 cells (KRas G12C)) | emergence of resistant proliferative clones (total cell number) ([1]; 1 μM sotorasib alone) | emergence of resistant proliferative clones (total cell number) ([2]; 1 μM sotorasib alone) | cell cycle dynamics [1, 3] | emergence of resistant proliferative clones (total cell number) [1, 3] | cell cycle dynamics [2, 3] | emergence of resistant proliferative clones (total cell number) [2, 3] |
| --- | --- | --- | --- | --- | --- | --- | --- |
| C=CC(=O)N1CCN(c2nc(=O)n(-c3c(C)ccnc3C(C)C)c3nc(-c4c(O)cccc4F)c(F)cc23)[C@@H](C)C1 [sotorasib, 6-fluoro-7-(2-fluoro-6-hydroxyphenyl)-1-[4-methyl-2-(propan-2-yl)pyridin-3-yl]-4-[(2S)-2-methyl-4-(prop-2-enoyl)piperazin-1-yl]-1H,2H-pyrido[2,3-d]pyrimidin-2-one] | did not show a significant anti-tumor effect | developed resistant proliferative clones (RPC) | developed resistant proliferative clones (RPC) | – | – | – | – |
| Cn1cncc1[C@@](N)(c1ccc(Cl)cc1)c1ccc2c(c1)c(-c1cccc(Cl)c1)cc(=O)n2C [tipifarnib, (R)-6-[amino (4-chlorophenyl) (1-methyl-1H-imidazol-5-yl)methyl]-4-(3-chlorophenyl)-1-methyl-2 (1H)-quinolinone] | did not show a significant anti-tumor effect | – | – | strongly impacting cell cycle dynamics, resulting in cell death | prevented the emergence of RPC | strongly impacting cell cycle dynamics, resulting in cell death | prevented the emergence of RPC |
